Results as given in ChEMBL document CHEMBL1201862, “PubChem BioAssay data set” (2004).
Activity calls are given as the source filed them.

Tests used:
Escherichia coli = assay: microbe, parasite or virus in culture
Beta-galactosidase = Beta-galactosidase (Escherichia coli, UniProt Q8VNN2); assay: Dose response counterscreen for EBI2 assay utilizing the enzyme, b-galactosidase.; assay type: functional
[1] = biological target: Voltage-dependent T-type calcium channel subunit alpha-1H (Homo sapiens, UniProt O95180); assay type: functional;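 further: channel activity triggered by adding a high calcium stimulation buffer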
Chain of Voltage-dependent T-type calcium channel subunit alpha-1H (O95180 whole entry): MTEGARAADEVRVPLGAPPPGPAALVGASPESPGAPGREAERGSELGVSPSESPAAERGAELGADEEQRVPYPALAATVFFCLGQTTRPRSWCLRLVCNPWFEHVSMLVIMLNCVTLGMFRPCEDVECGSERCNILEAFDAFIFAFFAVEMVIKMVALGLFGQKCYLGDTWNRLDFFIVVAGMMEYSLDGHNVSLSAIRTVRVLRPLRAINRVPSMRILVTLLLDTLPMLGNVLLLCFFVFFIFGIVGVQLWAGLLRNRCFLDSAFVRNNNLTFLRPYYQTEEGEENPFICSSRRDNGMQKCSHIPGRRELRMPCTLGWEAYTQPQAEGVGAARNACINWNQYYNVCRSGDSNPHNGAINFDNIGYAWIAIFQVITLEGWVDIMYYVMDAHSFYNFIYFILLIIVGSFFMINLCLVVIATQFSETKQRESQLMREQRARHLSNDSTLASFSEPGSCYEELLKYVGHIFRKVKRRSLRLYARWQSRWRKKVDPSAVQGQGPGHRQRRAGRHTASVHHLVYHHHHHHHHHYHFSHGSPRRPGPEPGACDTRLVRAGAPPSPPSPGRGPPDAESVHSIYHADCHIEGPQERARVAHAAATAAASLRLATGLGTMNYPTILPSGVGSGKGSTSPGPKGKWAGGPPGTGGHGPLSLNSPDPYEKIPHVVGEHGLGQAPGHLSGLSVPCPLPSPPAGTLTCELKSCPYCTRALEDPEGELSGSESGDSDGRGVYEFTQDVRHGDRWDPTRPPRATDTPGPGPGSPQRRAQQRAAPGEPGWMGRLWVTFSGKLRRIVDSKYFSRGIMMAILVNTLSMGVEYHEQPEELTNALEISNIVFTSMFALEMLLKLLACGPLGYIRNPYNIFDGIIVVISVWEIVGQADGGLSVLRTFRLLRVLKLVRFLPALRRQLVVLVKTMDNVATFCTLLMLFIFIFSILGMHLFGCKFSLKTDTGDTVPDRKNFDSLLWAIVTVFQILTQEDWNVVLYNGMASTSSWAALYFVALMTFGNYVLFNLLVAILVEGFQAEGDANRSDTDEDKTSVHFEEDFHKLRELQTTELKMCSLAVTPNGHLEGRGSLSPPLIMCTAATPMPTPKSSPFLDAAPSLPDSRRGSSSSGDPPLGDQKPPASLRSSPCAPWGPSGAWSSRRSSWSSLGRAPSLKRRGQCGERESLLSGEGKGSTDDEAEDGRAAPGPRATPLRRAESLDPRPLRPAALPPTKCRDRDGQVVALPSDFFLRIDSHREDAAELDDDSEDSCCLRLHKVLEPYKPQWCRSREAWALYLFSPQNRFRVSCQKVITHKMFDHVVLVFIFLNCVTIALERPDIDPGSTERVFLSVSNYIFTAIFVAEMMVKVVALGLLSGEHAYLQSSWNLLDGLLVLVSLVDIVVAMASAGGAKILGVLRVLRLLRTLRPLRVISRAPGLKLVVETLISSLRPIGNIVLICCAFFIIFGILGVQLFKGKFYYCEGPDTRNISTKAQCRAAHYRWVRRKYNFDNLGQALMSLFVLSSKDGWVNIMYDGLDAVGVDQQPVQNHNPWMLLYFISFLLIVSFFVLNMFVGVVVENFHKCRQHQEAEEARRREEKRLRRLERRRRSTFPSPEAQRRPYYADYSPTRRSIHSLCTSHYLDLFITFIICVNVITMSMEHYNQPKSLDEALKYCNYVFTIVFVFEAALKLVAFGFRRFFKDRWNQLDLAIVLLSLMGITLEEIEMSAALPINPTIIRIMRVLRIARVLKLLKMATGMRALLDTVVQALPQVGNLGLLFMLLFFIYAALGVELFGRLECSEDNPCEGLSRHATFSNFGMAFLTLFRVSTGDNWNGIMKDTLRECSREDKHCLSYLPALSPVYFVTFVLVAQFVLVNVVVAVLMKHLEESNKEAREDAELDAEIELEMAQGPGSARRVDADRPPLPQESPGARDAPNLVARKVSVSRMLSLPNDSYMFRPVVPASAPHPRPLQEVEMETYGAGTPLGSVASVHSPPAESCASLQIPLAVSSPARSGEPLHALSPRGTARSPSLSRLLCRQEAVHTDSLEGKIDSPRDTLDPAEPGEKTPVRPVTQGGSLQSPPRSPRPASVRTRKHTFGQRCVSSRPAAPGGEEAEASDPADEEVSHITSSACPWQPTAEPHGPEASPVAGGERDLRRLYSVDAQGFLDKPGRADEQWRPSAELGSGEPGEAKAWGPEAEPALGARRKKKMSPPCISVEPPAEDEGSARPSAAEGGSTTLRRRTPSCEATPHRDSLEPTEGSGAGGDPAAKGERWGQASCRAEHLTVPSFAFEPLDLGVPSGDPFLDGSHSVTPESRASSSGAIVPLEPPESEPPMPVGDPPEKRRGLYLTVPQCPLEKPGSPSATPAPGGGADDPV

[2] = biological target: T1, Short transient receptor potential channel 4 (Mus musculus, UniProt Q9QUQ5); assay: mouse TRPC4 channel activators, dose response, cell-based, HEK293 TRPC4/mu-opioid, Fluo-4 calcium (AID 434937); assay type: functional
T1 sequence (Q9QUQ5 whole entry): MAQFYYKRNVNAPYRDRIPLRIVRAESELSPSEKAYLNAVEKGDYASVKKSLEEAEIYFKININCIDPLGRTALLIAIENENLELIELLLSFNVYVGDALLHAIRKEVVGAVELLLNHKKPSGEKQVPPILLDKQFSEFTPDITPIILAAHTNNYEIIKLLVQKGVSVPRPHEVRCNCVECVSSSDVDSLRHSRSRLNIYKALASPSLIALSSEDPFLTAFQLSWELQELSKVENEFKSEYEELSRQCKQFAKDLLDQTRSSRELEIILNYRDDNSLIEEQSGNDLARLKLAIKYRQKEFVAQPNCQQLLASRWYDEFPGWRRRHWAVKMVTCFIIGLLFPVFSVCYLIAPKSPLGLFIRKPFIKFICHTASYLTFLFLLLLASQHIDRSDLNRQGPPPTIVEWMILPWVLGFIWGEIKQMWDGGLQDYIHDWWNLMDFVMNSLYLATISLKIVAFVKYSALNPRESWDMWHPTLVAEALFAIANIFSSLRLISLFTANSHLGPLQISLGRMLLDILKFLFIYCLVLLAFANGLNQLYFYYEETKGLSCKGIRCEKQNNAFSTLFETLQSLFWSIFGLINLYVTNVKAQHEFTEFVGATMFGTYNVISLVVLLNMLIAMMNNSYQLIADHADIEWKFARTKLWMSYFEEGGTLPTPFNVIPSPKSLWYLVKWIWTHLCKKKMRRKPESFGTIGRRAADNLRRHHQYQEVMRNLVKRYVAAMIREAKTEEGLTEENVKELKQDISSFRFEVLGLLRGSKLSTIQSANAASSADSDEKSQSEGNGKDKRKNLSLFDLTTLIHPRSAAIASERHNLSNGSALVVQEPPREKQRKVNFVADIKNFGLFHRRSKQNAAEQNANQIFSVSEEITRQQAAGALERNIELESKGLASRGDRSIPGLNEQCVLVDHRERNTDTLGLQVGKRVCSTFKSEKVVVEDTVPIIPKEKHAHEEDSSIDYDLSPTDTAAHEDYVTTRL

[3] = biological target: T2, Trace amine-associated receptor 1 (Homo sapiens, UniProt Q96RJ0); assay: Fluorescence-based cell-based high throughput dose response assay to identify agonists of the human trace amine associated receptor 1 (TAAR1).; assay type: functional
T2 sequence (Q96RJ0 whole entry): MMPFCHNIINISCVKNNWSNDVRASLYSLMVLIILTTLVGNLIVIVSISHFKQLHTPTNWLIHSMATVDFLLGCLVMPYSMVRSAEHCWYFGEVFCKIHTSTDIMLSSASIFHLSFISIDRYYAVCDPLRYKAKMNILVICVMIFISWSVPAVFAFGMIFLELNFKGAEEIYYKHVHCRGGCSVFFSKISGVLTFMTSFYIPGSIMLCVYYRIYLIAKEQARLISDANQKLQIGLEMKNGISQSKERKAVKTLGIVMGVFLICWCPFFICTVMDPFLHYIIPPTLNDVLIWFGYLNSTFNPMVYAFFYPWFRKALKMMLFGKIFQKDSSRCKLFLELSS

[4] = biological target: T2, Trace amine-associated receptor 1; assay: Counterscreen for agonists of the human trace amine associated receptor 1 (hTAAR1): Fluorescence-based cell-based high throughput dose response assay to identify hTAAR1 agonist that also desensitize TAAR1 receptor response.; assay type: functional
cells [5] = assay type: functional, cell-based
cells [6] = assay type: functional, cell-based; remark: listed apart in the source
[7] = C. albicans growth with fluconazole, confirmation, fluorescence, retest (AID 2467); assay type: functional, cell-based
[8] = NIH-3T3 fibroblast cytotoxicity, dose response, cytotoxicity control, cell-based, fluorescence, Alamar Blue, secondary assay (AID 2327); assay type: functional;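 further: NIH-3T3 mouse fibroblasts cultured with fluconazole at 8 µg/mL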
Fatty acid synthase = Fatty acid synthase (Homo sapiens, UniProt P49327); assay: FAS thioesterase domain inhibitors, dose response, biochemical, kinetic fluorescence intensity (AID 624326); assay type: functional;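 further: rate of fluorescence rise from hydrolysis of a fluorogenic O-methyl fluorescein ester substrate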
Genome polyprotein = Genome polyprotein (dengue virus type 2, UniProt P29990); assay: Dengue-2 NS5 methyltransferase inhibitors, primary screen, biochemical, confirmation dose response (AID 588689); assay type: functional
Chain of Genome polyprotein (P29990 2492-3391 limits assumed): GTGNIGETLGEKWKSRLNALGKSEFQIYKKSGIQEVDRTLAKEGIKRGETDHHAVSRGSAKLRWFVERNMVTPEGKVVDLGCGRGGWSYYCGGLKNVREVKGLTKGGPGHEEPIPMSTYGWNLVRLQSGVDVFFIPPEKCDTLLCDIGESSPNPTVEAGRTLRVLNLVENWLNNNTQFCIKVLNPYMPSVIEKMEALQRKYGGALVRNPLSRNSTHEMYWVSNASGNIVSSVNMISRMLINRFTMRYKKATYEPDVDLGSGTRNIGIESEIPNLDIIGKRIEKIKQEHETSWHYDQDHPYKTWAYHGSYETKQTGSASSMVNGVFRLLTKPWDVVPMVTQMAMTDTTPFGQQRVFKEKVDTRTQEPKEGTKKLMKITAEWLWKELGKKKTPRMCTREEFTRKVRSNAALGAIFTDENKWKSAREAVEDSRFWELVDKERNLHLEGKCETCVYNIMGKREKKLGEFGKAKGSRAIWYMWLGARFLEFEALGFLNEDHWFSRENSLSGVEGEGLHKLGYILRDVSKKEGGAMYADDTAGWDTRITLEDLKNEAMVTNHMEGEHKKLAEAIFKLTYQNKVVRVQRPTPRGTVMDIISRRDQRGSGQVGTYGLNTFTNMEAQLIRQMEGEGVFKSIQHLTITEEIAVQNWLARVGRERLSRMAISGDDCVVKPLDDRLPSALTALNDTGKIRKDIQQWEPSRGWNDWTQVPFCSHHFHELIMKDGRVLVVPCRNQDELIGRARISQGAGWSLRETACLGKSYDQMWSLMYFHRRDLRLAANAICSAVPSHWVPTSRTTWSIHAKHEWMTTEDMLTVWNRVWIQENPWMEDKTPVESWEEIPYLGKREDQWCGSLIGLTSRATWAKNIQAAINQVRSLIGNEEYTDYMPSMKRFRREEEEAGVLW

[9] = biological target: T3, RNA-binding protein pos-1 (Caenorhabditis elegans, UniProt G5EF15); assay: inhibitors of POS-1/mex-3 RNA binding, dose response, biochemical, fluorescence polarization (AID 1964);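 further: purified POS-1 fused to maltose binding protein made in E. coli; potency of compounds blocking POS-1 binding to fluorescent RNA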
T3 sequence (G5EF15 whole entry): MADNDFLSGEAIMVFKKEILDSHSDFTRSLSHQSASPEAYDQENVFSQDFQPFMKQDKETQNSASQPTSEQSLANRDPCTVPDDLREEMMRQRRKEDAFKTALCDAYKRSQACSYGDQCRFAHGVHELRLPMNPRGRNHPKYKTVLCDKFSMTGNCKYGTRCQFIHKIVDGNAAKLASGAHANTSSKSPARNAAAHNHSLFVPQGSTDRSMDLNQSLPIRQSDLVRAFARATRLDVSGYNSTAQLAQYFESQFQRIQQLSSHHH

[10] = biological target: T4, Zinc finger protein mex-5 (Caenorhabditis elegans, UniProt Q9XUB2); assay: MEX-5/TCR-2 RNA interaction inhibitors, dose response, biochemical, C. elegans, fluorescence polarization (AID 1960)
T4 sequence (Q9XUB2 whole entry): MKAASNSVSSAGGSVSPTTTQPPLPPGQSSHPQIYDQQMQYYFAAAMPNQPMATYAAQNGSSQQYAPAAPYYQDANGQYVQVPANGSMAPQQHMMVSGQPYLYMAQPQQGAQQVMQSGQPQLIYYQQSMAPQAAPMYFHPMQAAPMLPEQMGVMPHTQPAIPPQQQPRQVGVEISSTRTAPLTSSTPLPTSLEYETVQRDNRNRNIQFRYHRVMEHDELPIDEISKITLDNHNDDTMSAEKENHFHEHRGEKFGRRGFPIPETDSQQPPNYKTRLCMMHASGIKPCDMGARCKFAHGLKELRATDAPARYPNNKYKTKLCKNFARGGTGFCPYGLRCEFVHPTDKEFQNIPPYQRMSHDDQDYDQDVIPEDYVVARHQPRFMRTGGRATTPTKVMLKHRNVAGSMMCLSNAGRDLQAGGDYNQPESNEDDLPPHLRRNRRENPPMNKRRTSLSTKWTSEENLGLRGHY

Phosphomannomutase 2 = biological target: T5, Phosphomannomutase 2 (Homo sapiens, UniProt O15305); assay: Counter screen SAR assay for PMM2 inhibitors via a fluorescence intensity assay. [Related pubchem assays (depositor defined):AID1545, AID1574]
T5 sequence (O15305 whole entry): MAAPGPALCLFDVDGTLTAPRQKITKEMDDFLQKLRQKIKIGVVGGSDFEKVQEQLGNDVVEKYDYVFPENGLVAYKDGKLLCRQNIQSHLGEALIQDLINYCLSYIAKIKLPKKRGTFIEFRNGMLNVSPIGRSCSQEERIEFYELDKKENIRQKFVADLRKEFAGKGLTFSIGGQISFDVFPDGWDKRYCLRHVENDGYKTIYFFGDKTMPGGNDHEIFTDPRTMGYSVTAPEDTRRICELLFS

[11] = biological target: T6, Mannose-6-phosphate isomerase (Homo sapiens, UniProt P34949); assay: PMI enzyme inhibitors, confirmation, biochemical, fluorescence intensity (AID 1535)
T6 sequence (P34949 whole entry): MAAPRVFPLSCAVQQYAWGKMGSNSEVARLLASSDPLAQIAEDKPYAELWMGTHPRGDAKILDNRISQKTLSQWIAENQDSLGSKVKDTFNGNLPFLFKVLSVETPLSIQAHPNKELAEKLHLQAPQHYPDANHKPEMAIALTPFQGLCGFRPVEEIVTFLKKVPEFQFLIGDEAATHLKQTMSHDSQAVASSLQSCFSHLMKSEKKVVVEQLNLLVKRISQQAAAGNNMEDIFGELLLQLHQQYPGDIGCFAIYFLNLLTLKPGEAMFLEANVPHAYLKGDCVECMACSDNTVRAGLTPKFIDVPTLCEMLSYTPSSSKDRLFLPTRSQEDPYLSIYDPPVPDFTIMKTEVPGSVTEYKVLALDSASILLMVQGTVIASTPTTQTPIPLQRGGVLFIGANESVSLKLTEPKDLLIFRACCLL

Cytochrome P450 2C9 = Cytochrome P450 2C9 (Homo sapiens, UniProt P11712)
Chain of Cytochrome P450 2C9 (P11712 whole entry): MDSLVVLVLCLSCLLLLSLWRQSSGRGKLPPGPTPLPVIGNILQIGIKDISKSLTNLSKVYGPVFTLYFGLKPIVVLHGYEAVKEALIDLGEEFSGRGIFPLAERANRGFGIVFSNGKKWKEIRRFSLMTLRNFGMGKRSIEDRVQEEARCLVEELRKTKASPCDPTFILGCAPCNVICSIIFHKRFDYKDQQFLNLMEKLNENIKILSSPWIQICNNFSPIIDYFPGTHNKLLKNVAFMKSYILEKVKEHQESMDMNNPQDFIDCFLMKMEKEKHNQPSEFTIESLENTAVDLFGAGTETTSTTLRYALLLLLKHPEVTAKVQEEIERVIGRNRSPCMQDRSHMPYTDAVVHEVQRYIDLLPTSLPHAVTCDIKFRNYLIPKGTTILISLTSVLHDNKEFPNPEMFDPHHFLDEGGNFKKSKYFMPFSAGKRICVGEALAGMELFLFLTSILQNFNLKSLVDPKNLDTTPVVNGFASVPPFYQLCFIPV

Cytochrome P450 3A4 = Cytochrome P450 3A4 (Homo sapiens, UniProt P08684);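 further: CYP3A4 tested as one member of a cytochrome P450 panel screen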

Chain of Beta-galactosidase (Q8VNN2 whole entry): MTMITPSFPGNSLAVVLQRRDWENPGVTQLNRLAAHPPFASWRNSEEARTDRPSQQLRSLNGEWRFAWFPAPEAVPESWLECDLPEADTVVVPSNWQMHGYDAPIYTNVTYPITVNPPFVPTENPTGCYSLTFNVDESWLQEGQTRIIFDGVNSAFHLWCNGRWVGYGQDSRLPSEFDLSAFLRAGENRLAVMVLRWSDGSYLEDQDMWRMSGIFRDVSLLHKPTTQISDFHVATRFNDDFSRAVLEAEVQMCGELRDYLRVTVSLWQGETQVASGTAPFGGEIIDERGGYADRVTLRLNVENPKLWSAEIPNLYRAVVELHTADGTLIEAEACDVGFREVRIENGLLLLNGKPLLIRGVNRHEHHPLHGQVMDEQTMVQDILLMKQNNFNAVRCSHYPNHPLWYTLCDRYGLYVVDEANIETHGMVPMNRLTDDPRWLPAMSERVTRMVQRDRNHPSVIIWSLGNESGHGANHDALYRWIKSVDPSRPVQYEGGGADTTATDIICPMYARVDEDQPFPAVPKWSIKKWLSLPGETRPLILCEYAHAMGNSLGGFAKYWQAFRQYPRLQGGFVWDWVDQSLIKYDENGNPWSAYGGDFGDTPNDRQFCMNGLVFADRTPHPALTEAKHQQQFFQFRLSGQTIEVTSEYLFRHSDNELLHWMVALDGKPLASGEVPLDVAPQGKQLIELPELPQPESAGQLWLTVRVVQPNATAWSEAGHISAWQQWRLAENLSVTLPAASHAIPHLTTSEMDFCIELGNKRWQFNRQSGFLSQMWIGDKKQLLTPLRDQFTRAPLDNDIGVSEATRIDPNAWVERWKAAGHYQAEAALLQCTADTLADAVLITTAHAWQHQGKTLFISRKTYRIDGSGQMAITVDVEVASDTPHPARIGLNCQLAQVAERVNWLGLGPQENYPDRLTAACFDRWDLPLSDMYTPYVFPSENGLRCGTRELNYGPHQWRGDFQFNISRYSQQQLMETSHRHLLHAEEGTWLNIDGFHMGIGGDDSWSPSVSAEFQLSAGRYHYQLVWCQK

## CCCNC(=O)c1cn(CC)c2cc(N3CCN(C)CC3)c(F)cc2c1=O
Escherichia coli
  AC50: 2.04 µM (active)

## Cc1cc(C)c(S(=O)(=O)N2CCN(C(=O)c3cc4ccccc4o3)CC2)c(C)c1
Beta-galactosidase
  IC50: > 80 µM (inactive)

## CCOC(=O)c1sc(NC(=O)C(CC)OC(=O)C(CC(C)C)NC(=O)c2ccccc2)nc1C (stereo not drawn)
[1]
  EC50: 5.2 µM (active)

## O=S(=O)(NCCc1csc(-c2ccccc2)n1)c1cccnc1
[2]
  EC50: 3.76 µM (active)

## CCOc1ccc(NC(=O)c2ccc(NC(=O)c3cn4c5c(c(N6CCN(C)CC6)c(F)cc5c3=O)OCC4C)cc2)cc1 (stereo not drawn)
Escherichia coli
  AC50: 0.645 µM (active)

## COc1ccc(NS(=O)(=O)c2ccc(NC(=S)NC(=O)C(C)C)cc2)cc1
[3]
  EC50: 1.99 µM (active)
[4]
  IC50: 6.23 µM (active)
Cells [5]
  IC50: 11.5 µM (inactive)
Cells [6]
  EC50: 19 µM (inactive)

## COc1ccccc1N1CCN(C(=O)c2cc3cc(Cl)ccc3[nH]2)CC1
Beta-galactosidase
  IC50: > 80 µM (inactive)
[7]
  EC50: > 38 µM (not active)
[8]
  EC50: 38.6 µM (active)

## COCc1cc(C)nc(SCC[N+](C)(C)CC(=O)Nc2ccccc2)c1C#N
Fatty acid synthase
  IC50: 12.4 µM (active)

## CCN1CCN(C(=O)C(NS(=O)(=O)c2ccc3nc(C)sc3c2)C(C)C)CC1 (stereo not drawn)
Escherichia coli
  AC50: > 150 µM (inactive)

## Cc1cc(C)c2cc(C#N)c(N3CCNCC3)nc2c1
[3]
  EC50: 1.55 µM (active)
[4]
  IC50: 4.28 µM (active)
Cells [5]
  IC50: > 30 µM (inactive)
Cells [6]
  EC50: > 30 µM (inactive)

## O=C(CN1CCCCCC1)N1c2ccccc2Sc2ccc(C(F)(F)F)cc21
[1]
  EC50: 7.61 µM (active)

## CN(C)CCCN(C(=O)c1ccc(S(=O)(=O)N2CCc3ccccc32)cc1)c1nc2ccc(F)cc2s1
[2]
  EC50: 2.66 µM (active)

## Cc1csc2c(N3CCN(C(S)=Nc4ccc(C(F)(F)F)cc4)CC3)ncnc12
[2]
  EC50: 1.68 µM (active)

## CCC(=O)OC1(C)C(=O)C=C2C=C(C3CC3)OC=C2C1=O (stereo not drawn)
Genome polyprotein
  IC50: > 100 µM (active)
[9]
  EC50: > 300 µM (not active)
[10]
  EC50: 30.4 µM (active)

## CC(C)[C@H](NC(=O)c1ccc(Cl)c(Cl)c1)C(=O)N1CCC[C@H]1C(=O)NCCc1ccccc1Cl
[3]
  EC50: 1.45 µM (active)
[4]
  IC50: 1.53 µM (active)
Cells [5]
  IC50: > 29.9 µM (inactive)
Cells [6]
  EC50: > 29.9 µM (inactive)

## COc1ccc(N(CC(=O)NCCSc2ccccc2)S(=O)(=O)c2ccccc2)cc1
Beta-galactosidase
  IC50: > 80 µM (inactive)

## O=C(NCCCN1CCN(c2cccc(Cl)c2)CC1)C1(S(=O)(=O)c2ccc(Cl)cc2)CC1
[1]
  EC50: 6.17 µM (active)

## Cc1ccc2nc(-n3sc4ccccc4c3=O)sc2c1
Phosphomannomutase 2
  IC50: > 100 µM (inactive)
[11]
  IC50: > 50 µM (inactive)

## Cc1ccc2[nH]cc(CCNC(=O)Nc3ccccc3)c2c1
[1]
  EC50: 5.23 µM (active)

## Cc1ccc(S(=O)(=O)N(CC(=O)N2CCN(c3ccccc3F)CC2)C2CCCCC2)cc1
[1]
  EC50: 2.58 µM (active)

## Cc1cc(C)n(CCCNC(=O)COc2ccc([N+](=O)[O-])cc2)n1
Escherichia coli
  AC50: 89.1 µM (active)

## CN(C)c1ccc(/N=c2\ssnc2Cl)cc1
Phosphomannomutase 2
  IC50: > 100 µM (inactive)
[11]
  IC50: 12.4 µM (active)

## O=C(NCCc1ccccn1)c1ccc(OC2CCN(CCc3ccccc3)CC2)cc1
[2]
  EC50: 1.19 µM (active)

## O=[N+]([O-])c1ccc(/N=c2\ssnc2Cl)c2ccccc12
Phosphomannomutase 2
  IC50: > 100 µM (inactive)
[11]
  IC50: > 100 µM (inactive)

## C[C@H]1CCCC=CC2C[C@H](OC(=O)CN(C)C)C[C@@H]2[C@@H](O)/C=C\C(=O)O1 (stereo partly drawn)
Cytochrome P450 2C9
  AC50: inconclusive
Cytochrome P450 3A4
  AC50: inconclusive

## O=C(c1nc(C(F)(F)F)[nH]c1-c1ccccc1)N1CCc2ccccc2C1
[3]
  EC50: 2.77 µM (active)
[4]
  IC50: 9.85 µM (active)
Cells [5]
  IC50: > 29.9 µM (inactive)
Cells [6]
  EC50: > 29.9 µM (inactive)

## O=C(c1cc(=O)c2cc(Cl)ccc2o1)N1CCN(Cc2ccccc2)CC1
Beta-galactosidase
  IC50: > 80 µM (inactive)

## O=C(Nc1nc2c(s1)CCCC2)c1cccc(S(=O)(=O)N2CCCc3ccccc32)c1
Escherichia coli
  AC50: 134 µM (active)
